In patent US20080216197A1, “Polypeptide Having Function Related to Pyridoxine Biosynthesis, Polynucleotide Coding the Polypeptide, and Those Use” (Genomine, Inc., priority 2005, published 2008):
Counter-ions that a name gives are not always drawn.

Experiments:
[1] = test system: mutant Arabidopsis thaliana; experiment: Phenotype recovery of mutant T2 plants on pyridoxine-supplemented MS medium; type: in vivo; settings: 2.5 mg/L pyridoxine-HCl in MS medium, 30 seeds/Petri dish, slight etiolation observed, FIG. 7
Protocol: The analysis of the AtPDX5 domain led to the inference that the AtPDX5 gene might have an enzymatic function involved in the pyridoxine biosynthesis pathway. To examine this, T2 plants of the mutant Arabidopsis thaliana were cultured in Petri dishes containing a 2.5 mg/L pyridoxine-HCl (Sigma, USA)-supplemented MS medium (30 seeds/Petri dish). […] In addition, the etiolation of the mutant plants was believed to be attributed to a low content of pyridoxine in the medium. Based on the fact that the phenotype recovery was induced by the addition of pyridoxine, the AtPDX5 gene is concluded to be directly responsible for pyridoxine biosynthesis. As described hereinbefore, T2 plants of the mutant Arabidopsis thaliana have the phenotype properties of significant growth delay, etiolation throughout leaves, and death in an early stage, and the mutant Arabidopsis thaliana can have the same phenotype as that of the wild-type in the presence of pyridoxine.

Arabidopsis thaliana = experiment: PPT treatment of T2 plants grown in Petri dishes (segregation check); type: in vivo; settings: 12.5 mg/L PPT

Row | SMILES | phenotype (growth delay) of the mutant versus the wild-type [1] | effect on the five plants having a wild-type phenotype (Arabidopsis thaliana) | effect on the other 25 plants (etiolation and retarded growth phenotype) (Arabidopsis thaliana)
1 | Cc1ncc(CO)c(CO)c1O [pyridoxine-HCl, 2-methyl-3-hydroxy-4,5-di(hydroxymethyl)pyridine] | no significant difference in phenotype |  | 
2 | CP(=O)(O)CC[C@H](N)C(=O)O [PPT, phosphinothricin] |  | converted to a fatal phenotype | remained unchanged
